Measured values reported in PMC4674680, “An in cellulo-derived structure of PAK4 in complex with its inhibitor Inka1” (Nature Communications, 2015).
One block for each molecule: values may come before it. No end group written: not given here.

Assays:
[1] = tested on: GFP–Inka1:PAK4cat co-crystals; experiment: Live imaging of growing GFP-Inka1:PAK4cat crystals, effect of PF-03758309; type: cell-based
Procedure: Live cell imaging of crystal growth and SIM and confocal microscopy
The cells were plated at 50% confluence glass cover slips overnight: plasmid transfection used GFP–iBox–Pak4cat and FLAG–iBox–Pak4cat constructs at a ratio of 4:1, to promote crystal nucleation. The cover slips were transferred to a Chamlide magnetic chamber (Live Cell Instruments, Seoul, Korea) with 5% CO2 at 37 °C for live imaging on an Zeiss Axiovert 200 M live-cell imaging with a × 10 objective. We imaged multiple chosen regions for 8 h at 6-min intervals. To measure crystal growth rate, we used instead a Nikon Eclipse Ti microscope equipped with spinning disk confocal attachment (Yokogawa CSU-22 module) to avoid photo-damage. The cells were imaged at × 60 1.4 numerical aperture (NA) objective at 2-min intervals. For SIM and confocal imaging, cells were fixed in non-hardening mounting media (Vectashield). The slides were imaged by Delta vision OMX SIM with a × 100 1.4 NA objective. […] The three-dimensional stacks were analysed by IMARIS software.

PAK4 = conditions: binds in vitro; ATP-competitive; cited from earlier work
Procedure: As the Flag-iBox-PAK4 crystal structure contained bound ATP, which is stabilized by the Inka1 inhibitory peptide (Fig. 3a), we were interested on the effect of the ATP-competitive PAK4 inhibitor PF-03758309, which binds with 10 nM affinity in vitro[45]. […] Thus, PF-03758309 appears to allow PAK4cat to incorporate with sub-stoichiometric levels of GFP–Inka1, consistent with PF-03758309 either reducing the affinity of GFP–Inka1 or allowing PAK4cat inco ...

PAK4cat [2] = target: T1, PAK4cat (Homo sapiens, UniProt O96013); experiment: In-vitro kinase assay, PAK4cat (phosphorylation of GST-Raf13); type: biochemical; design: PAK1 (1–545) and PAK4 (286–591), respectively; 6His (N); made in house; host or cells: Escherichia coli BL21-CodonPlus(DE3); conditions: Fig. 1d; n=3; IC50 from intercepts of the graphs; PAK 50 nM, 10 μM GST-Raf1S338, 10 μM ATP (γ32P), pH 7.3, 30 °C 20 min; peptide preincubated on ice 10 min
T1 sequence (O96013 286-591): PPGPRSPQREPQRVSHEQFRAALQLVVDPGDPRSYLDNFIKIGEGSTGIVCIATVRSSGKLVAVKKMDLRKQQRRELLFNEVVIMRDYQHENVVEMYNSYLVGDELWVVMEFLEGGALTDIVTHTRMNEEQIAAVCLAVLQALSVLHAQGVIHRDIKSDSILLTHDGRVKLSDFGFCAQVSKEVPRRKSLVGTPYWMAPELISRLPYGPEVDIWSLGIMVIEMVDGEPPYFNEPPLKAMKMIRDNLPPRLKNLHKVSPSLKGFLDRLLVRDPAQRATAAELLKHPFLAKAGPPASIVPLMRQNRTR
Procedure: Purified PAK1 or PAK4 (50 nM in 25–50 μl) were incubated with 10 μM GST-Raf1S338 peptide in 10 μM ATP (2 μCi of γ32P ATP) of kinase buffer (25 mM HEPES, pH 7.3, 0.1% Triton X-100, 50 mM KCl, 10 mM MgCl2, 1 mM dithiothreitol) at 30 °C for 20 min. Samples were analysed by SDS–PAGE or adsorption of the GST substrate mix onto polyvinylidene difluoride membranes, followed by extensive washing to remove free γ32P-ATP. The synthetic peptides of 95% purity, as determined by HPLC and mass spectrometric analyses (GenScript), were soluble in aqueous PBS. Stock solutions (10 mM) were quantified via calculated extinction coefficients and absorbance measurements at 280 nm and stored at −80 °C. The diluted peptides were incubated at the indicated concentrations with the kinase on ice (10 min) before addition of γ32P ATP and subsequent incubation at 30 °C. The synthetic peptide array (Jerini Biotools) was phosphorylated in situ as described previously.

PAK4cat [3] = target: T1, PAK4cat; experiment: In-cellulo crystal formation with PAK4cat; type: cell-based; design: PAK4 (286–591); conditions: transfected mammalian cells
Procedure: Generation and harvesting of intracellular PAK4 crystals
COS-7, HeLa, HEK293 or U2OS cells (35-mm culture dish or glass coverslip) were typically transfected with 2.5 μg of each plasmid in 2 ml of media using Lipofectamine 2000 (Invitrogen) or the GenomeONE Neo EX haemagglutinating virus of Japan envelope transfection kit (Cosmo Bio Co. Ltd) as per the manufacturer's protocol. Crystals were observed by phase-contrast microscopy using a × 10 objective (Nikon Eclipse TE300) 1–4 days post transfection. The structure of Flag–iBox–PAK4cat (Figs 2 and 3) was determined from crystals grown in COS-7 cells. The cells were harvested 3 days after transfection by incubating in PBS with 0.125% (w/v) trypsin and 25% (v/v) glycerol (Merck) for 30 min. Individual cells containing single crystals were then mounted in 0.1–0.2 mm cryoloops (Hampton Research) and flash cooled in liquid nitrogen.

Molecule: Cc1nc(Nc2[nH]nc3c2CN(C(=O)N[C@H](CN(C)C)c2ccccc2)C3(C)C)c2sccc2n1 [PF-03758309]
Effect on crystal GFP signal, in words ([1]; 5 μM PF-03758309, elongation phase): depleted of GFP signal
Effect on crystal growth rate, in words ([1]; after PF3758309 addition (5 μM), Fig. 6d): Crystal growth slowed
affinity (PAK4): 10 nM

IC50 (PAK4cat [2]): 5 µM
Molecule: RGRSRQPLVLGDNC [iBox14]

Molecule: Inka1 (255–285): C-terminal 31 amino acid of Inka1 (RPEPELPADVSRFAALMSCRSRQPIICNDVS; UniProt Q96EL1 255-285, looked up, fragment)
Induction of intracellular crystals with PAK4cat, in words (PAK4cat [3]): able to induce crystals more efficiently than the Inka1 (166–203)
